Legend:
Assay type in all cases: physicochemical
[1] = Storage stability of crystals of compound D at 60° C. and 75% relative humidity (Test Example 2), crystal form by infrared absorption spectrum; details: for change of crystal form on storage (summary in words) / stability on storage (summary in words): up to 8 weeks
Method: Type-A crystals, type-B crystals or type-C crystals of compound D were packed in double plastic bags and stored under conditions of 60° C. temperature and 75% relative humidity. Sampling was performed over time, and the crystal form was determined by infrared absorption spectrum measurement.

[2] = Solubility in organic solvents
Source text: Therefore, compound C is isolated according to any method such as neutralization crystallization in an aqueous solvent.

[3] = Standing of crystals at room temperature
Source text: It is difficult to store type-A crystals of compound D for a long period.
Type-C crystals of compound D can be produced by, for example, leaving type-A crystals of compound D to stand at room temperature.
The standing time may be one week to one year.

Compound | change of crystal form on storage (summary in words) ([1]; 60° C., 75% relative humidity) | stability on storage (summary in words) ([1]; 60° C., 75% relative humidity) | storage stability (general statement) [1] | solubility in various organic solvents [2] | crystal form after storage ([1]; double plastic bags, 60° C., 75% relative humidity, 8 weeks) | change of crystal form when left to stand [3]
NC(=O)c1nc(Br)cnc1O [Type-C crystals, 6-bromo-3-hydroxy-2-pyrazinecarboxamide] | not changed | stable |  |  |  | 
NC(=O)c1nc(Br)cnc1O [Type-B crystals, 6-bromo-3-hydroxy-2-pyrazinecarboxamide] | not changed | stable | excellent in storage stability |  |  | 
NC(=O)c1nccnc1O [compound C, 3-hydroxy-2-pyrazinecarboxamide] |  |  |  | hardly soluble |  | 
NC(=O)c1nc(Br)cnc1O [Type-A crystals, 6-bromo-3-hydroxy-2-pyrazinecarboxamide] | changed to type-C crystals |  |  |  | A + C(major) | converted into type-C crystals
